Experimental data published in patent US12134610B2, “Somatostatin subtype-2 receptor (SST2R) targeted therapeutics and uses thereof” (priority 2022, dated 2024).
Where two headings read alike, the source gives them in different places. Starred links: 1 amine or outer side, 2 acyl side, 3 side chain; linkers in the order of their positions; H or OH if unused. Non-standard residues stand in square brackets, D forms with d. Residues, ends and D or L forms follow the SMILES beside them. *: point of attachment. X4 = Cc1cc(F)cc(-c2cnc(NCCNC(=O)CCOCCOCCOCCOCCC(=O)*)c(-c3nc4ccc(Cl)cc4[nH]3)c2N2CCC(N)CC2)c1; X1 = Cc1cc(F)cc(-c2cnc(NCCNC(=O)CCOCCC(=O)*)c(-c3nc4ccc(Cl)cc4[nH]3)c2N2CCC(N)CC2)c1; Dolaproine = CO[C@@H]([C@@H]1CCCN1)[C@@H](C)C(=O)O; Dil = CC[C@H](C)[C@H](NC)[C@@H](CC(=O)O)OC; PABC = O=C(OCc1ccc(N[*:1])cc1)[*:2]; X2 = C[C@@H](N*)[C@@H](O)c1ccccc1; dCya = N[C@H](CS(=O)(=O)O)C(=O)O; Cit = NC(=O)NCCC[C@H](N)C(=O)O; NMeV = CN[C@H](C(=O)O)C(C)C

Legend:
Assay type in all cases: cell-based
[1] = tested on: NCI-H524 (ATCC) human small cell lung cancer cells
Procedure, shortened: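 NCI-H524 cells (5,000/well) were exposed 24 h after plating to SMDC for 2 h, 11-point two-fold series from 1 uM. After washout they grew a further 70 h. Proliferation was read by CellTiter-Glo luminescence, % inhibition taken vs untreated control, and IC50 fitted by four-parameter nonlinear regression.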

[2] = target: T1, human somatostatin receptor subtype 2 (Homo sapiens, UniProt P30874); assay: Functional cAMP assay for SSTR2 agonists (HTRF) in CHO-K1 cells; details: CHO-K1 cells stably expressing human SST2, 20 min
T1 construct: expressed in transfected cells
T1 sequence (P30874 whole entry): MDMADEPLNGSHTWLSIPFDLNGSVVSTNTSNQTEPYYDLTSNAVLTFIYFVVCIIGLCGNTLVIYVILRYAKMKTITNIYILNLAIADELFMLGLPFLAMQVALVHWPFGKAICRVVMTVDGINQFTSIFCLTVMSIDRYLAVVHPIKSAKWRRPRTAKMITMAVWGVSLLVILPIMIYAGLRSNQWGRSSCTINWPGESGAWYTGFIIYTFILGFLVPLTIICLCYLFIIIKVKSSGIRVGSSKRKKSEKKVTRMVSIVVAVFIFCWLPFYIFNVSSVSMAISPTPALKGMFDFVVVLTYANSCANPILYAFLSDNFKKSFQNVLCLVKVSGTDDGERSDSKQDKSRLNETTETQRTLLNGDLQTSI
Procedure, shortened: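 CHO-K1 cells stably expressing receptor, plated 4 days before assay, treated 20 min at 37° C. with compound (typically 0-10,000 nM final) plus IBMX and 1.6 μM NKH477 to raise cAMP. HTRF read, 665/620 nm ratio; cAMP from standard curve, EC50 fitted.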

[3] = target: T2, SST2 (Homo sapiens, UniProt P30874); assay: PathHunter CHO-K1 SST2 internalization assay; details: PathHunter CHO-K1 SST2, 90 min
T2 construct: host or cells: PathHunter CHO-K1 SST2 cells
T2 sequence (P30874 whole entry): as above
Procedure, shortened: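 PathHunter CHO-K1 SST2 cells, seeded and grown 48 h, were exposed to 11-point 1:3 dilutions of SMDC (top final 10 uM) for 90 min at 37 C, 5% CO2. Beta-Glo luminescence was read after 60 min at room temperature. Background-corrected duplicate means were fitted by four-parameter nonlinear regression to give IC50.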

[4] = 2 h treatment, washout, additional 70 h, read-out: H524 EC50

| SMILES | EC50 ([1]; 2 h) | EC50 ([2]; read-out: hSST2 cAMP Avg EC50) | EC50 ([3]; read-out: Internalization EC50) | EC50 [1, 4] | EC50 ([2]; hSST2 cAMP Avg EC50 (nM)) | EC50 ([3]; Internalization EC50 (nM)) |
| --- | --- | --- | --- | --- | --- | --- |
| CC[C@H](C)[C@@H]([C@@H](CC(=O)N1CCC[C@H]1[C@H](OC)[C@@H](C)C(=O)N[C@H](C)[C@@H](O)c1ccccc1)OC)N(C)C(=O)[C@@H](NC(=O)[C@H](C(C)C)N(C)C(=O)OCc1ccc(NC(=O)[C@H](CCCNC(N)=O)NC(=O)[C@@H](NC(=O)CCC(=O)NCCNc2ncc(-c3cc(C)cc(F)c3)c(N3CCC(N)CC3)c2-c2nc3ccc(Cl)cc3[nH]2)C(C)C)c(O[C@@H]2O[C@H](C(=O)O)[C@@H](O)[C@H](O)[C@H]2O)c1)C(C)C [Compound 75] | 16.5 nM | 0.54 nM | 8.9 nM | – | – | – |
| CC[C@@]1(O)C(=O)OCc2c1cc1n(c2=O)Cc2c-1nc1cc(F)c(C)c3c1c2[C@@H](NC(=O)OCc1ccc(NC(=O)[C@H](CCCNC(N)=O)NC(=O)[C@@H](NC(=O)CCOCCOCCOCCOCCC(=O)NCCNc2ncc(-c4cc(C)cc(F)c4)c(N4CCC(N)CC4)c2-c2nc4ccc(Cl)cc4[nH]2)C(C)C)cc1)CC3 [Compound 38] | – | – | – | 59.4 nM | 0.11 nM | 1 nM |
| CC[C@H](C)[C@@H]([C@@H](CC(=O)N1CCC[C@H]1[C@H](OC)[C@@H](C)C(=O)N[C@H](C)[C@@H](O)c1ccccc1)OC)N(C)C(=O)[C@@H](NC(=O)[C@H](C(C)C)N(C)C(=O)OCc1ccc(NC(=O)[C@H](CCCNC(N)=O)NC(=O)[C@@H](NC(=O)[C@H](CCC(N)=O)NC(=O)[C@H](CCC(=O)O)NC(=O)CCOCCOCCOCCOCCC(=O)NCCNc2ncc(-c3cc(C)cc(F)c3)c(N3CCC(N)CC3)c2-c2nc3ccc(Cl)cc3[nH]2)C(C)C)cc1)C(C)C [Compound 119] (X4-EQV[Cit][PABC][NMeV]V[Dil][Dolaproine]-X2) | 16 nM | 0.14 nM | 5.4 nM | – | – | – |
| CC[C@@]1(O)C(=O)OCc2c1cc1n(c2=O)Cc2c-1nc1cc(F)c(C)c3c1c2[C@@H](NC(=O)OCc1ccc(NC(=O)[C@H](CCCNC(N)=O)NC(=O)[C@@H](NC(=O)CCOCCOCCOCCOCCC(=O)NCCNc2ncc(-c4cc(C)cc(F)c4)c(N4CCC(N)CC4)c2-c2nc4ccc(Cl)cc4[nH]2)C(C)C)cc1C(=O)NCCN)CC3 [Compound 91] | – | – | – | 190 nM | 0.18 nM | 5.6 nM |
| CC[C@H](C)[C@@H]([C@@H](CC(=O)N1CCC[C@H]1[C@H](OC)[C@@H](C)C(=O)N[C@H](C)[C@@H](O)c1ccccc1)OC)N(C)C(=O)[C@@H](NC(=O)[C@H](C(C)C)N(C)C(=O)OCc1ccc(NC(=O)[C@H](CCCNC(N)=O)NC(=O)[C@@H](NC(=O)[C@@H](CS(=O)(=O)O)NC(=O)CCOCCC(=O)NCCNc2ncc(-c3cc(C)cc(F)c3)c(N3CCC(N)CC3)c2-c2nc3ccc(Cl)cc3[nH]2)C(C)C)cc1)C(C)C [Compound 104] (X1-[dCya]V[Cit][PABC][NMeV]V[Dil][Dolaproine]-X2) | 24 nM | 0.062 nM | 2.8 nM | – | – | – |
| CC[C@H](C)[C@@H]([C@@H](CC(=O)N1CCC[C@H]1[C@H](OC)[C@@H](C)C(=O)N[C@H](C)[C@@H](O)c1ccccc1)OC)N(C)C(=O)[C@@H](NC(=O)[C@H](C(C)C)N(C)C(=O)OCc1ccc(NC(=O)[C@H](C)NC(=O)[C@@H](NC(=O)CCOCCOCCOCCOCCC(=O)NCCNc2ncc(-c3cc(C)cc(F)c3)c(N3CCC(N)CC3)c2-c2nc3ccc(Cl)cc3[nH]2)C(C)C)cc1C(=O)NCCN)C(C)C [Compound 85] | 2.2 nM | 0.25 nM | 13 nM | – | – | – |
| CC[C@H](C)[C@@H]([C@@H](CC(=O)N1CCC[C@H]1[C@H](OC)[C@@H](C)C(=O)N[C@H](C)[C@@H](O)c1ccccc1)OC)N(C)C(=O)[C@@H](NC(=O)[C@H](C(C)C)N(C)C(=O)OCc1ccc(NC(=O)[C@H](C)NC(=O)[C@@H](NC(=O)CCNCCC(=O)NCCNc2ncc(-c3cc(C)cc(F)c3)c(N3CCC(N)CC3)c2-c2nc3ccc(Cl)cc3[nH]2)C(C)C)c(O[C@@H]2O[C@H](C(=O)O)[C@@H](O)[C@H](O)[C@H]2O)c1)C(C)C [Compound 155] | 71 nM | 0.24 nM | 29 nM | – | – | – |
| CC[C@H](C)[C@@H]([C@@H](CC(=O)N1CCC[C@H]1[C@H](OC)[C@@H](C)C(=O)N[C@@H](Cc1ccccc1)C(=O)O)OC)N(C)C(=O)[C@@H](NC(=O)[C@H](C(C)C)N(C)C(=O)CCOCCOCCOCCOCCC(=O)NCCNc1ncc(-c2cc(C)cc(F)c2)c(N2CCC(N)CC2)c1-c1nc2ccc(Cl)cc2[nH]1)C(C)C [Compound 11] | 105 nM | 0.086 nM | 13.4 nM | – | – | – |
| CC[C@H](C)[C@@H]([C@@H](CC(=O)N1CCC[C@H]1[C@H](OC)[C@@H](C)C(=O)N[C@H](C)[C@@H](O)c1ccccc1)OC)N(C)C(=O)[C@@H](NC(=O)[C@H](C(C)C)N(C)C(=O)OCc1ccc(NC(=O)[C@H](CCCNC(N)=O)NC(=O)[C@@H](NC(=O)CCCCC(=O)NCCNc2ncc(-c3cc(C)cc(F)c3)c(N3CCC(N)CC3)c2-c2nc3ccc(Cl)cc3[nH]2)C(C)C)c(O[C@@H]2O[C@H](C(=O)O)[C@@H](O)[C@H](O)[C@H]2O)c1)C(C)C [Compound 133] | 34 nM | 0.11 nM | 6 nM | – | – | – |
| CC[C@H](C)[C@@H]([C@@H](CC(=O)N1CCC[C@H]1[C@H](OC)[C@@H](C)C(=O)N[C@H](C)[C@@H](O)c1ccccc1)OC)N(C)C(=O)[C@@H](NC(=O)[C@H](C(C)C)N(C)C(=O)OCc1ccc(NC(=O)[C@H](CCCNC(N)=O)NC(=O)[C@@H](NC(=O)CN2CCN(CC(=O)O)CCN(CC(=O)NCCNc3ncc(-c4cc(C)cc(F)c4)c(N4CCC(N)CC4)c3-c3nc4ccc(Cl)cc4[nH]3)CC2)C(C)C)cc1)C(C)C [Compound 33] | 274 nM | 0.63 nM | 34.9 nM | – | – | – |
| CC[C@H](C)[C@@H]([C@@H](CC(=O)N1CCC[C@H]1[C@H](OC)[C@@H](C)C(=O)N[C@H](C)[C@@H](O)c1ccccc1)OC)N(C)C(=O)[C@@H](NC(=O)[C@H](C(C)C)N(C)C(=O)OCc1ccc(NC(=O)[C@H](C)NC(=O)[C@@H](NC(=O)CCOCCC(=O)N(C)CCNc2ncc(-c3cc(C)cc(F)c3)c(N3CCC(N)CC3)c2-c2nc3ccc(Cl)cc3[nH]2)C(C)C)c(O[C@@H]2O[C@H](C(=O)O)[C@@H](O)[C@H](O)[C@H]2O)c1)C(C)C [Compound 153] | 98 nM | 0.51 nM | 14 nM | – | – | – |
| CCC(C)C(C(CC(=O)N1CCCC1C(OC)C(C)C(=O)NC(C)C(O)c1ccccc1)OC)N(C)C(=O)C(NC(=O)C(C(C)C)N(C)C(=O)OCc1ccc(NC(=O)[C@H](CCCNC(N)=O)NC(=O)[C@@H](NC(=O)CCOCCOCCOCCOCCC(=O)NCCNc2ncc(-c3cc(C)cc(F)c3)c(N3CCC(N)CC3)c2-c2nc3ccc(Cl)cc3[nH]2)C(C)C)cc1)C(C)C (stereo in doubt) [Compound 25] | 25 nM | 0.34 nM | 27 nM | – | – | – |
| CC[C@H](C)[C@@H]([C@@H](CC(=O)N1CCC[C@H]1[C@H](OC)[C@@H](C)C(=O)N[C@H](C)[C@@H](O)c1ccccc1)OC)N(C)C(=O)[C@@H](NC(=O)[C@H](C(C)C)N(C)C(=O)OCc1ccc(NC(=O)[C@H](CCCNC(N)=O)NC(=O)[C@@H](NC(=O)CCOCCOCCOCCOCCC(=O)NCCNc2ncc(-c3cc(C)cc(F)c3)c(N3CCC(N)CC3)c2-c2nc3ccc(Cl)cc3[nH]2)C(C)C)cc1C(=O)NCC(N)=O)C(C)C [Compound 124] | 5.3 nM | 0.16 nM | 5.6 nM | – | – | – |
| CCC(C)C(C(CC(=O)N1CCCC1C(OC)C(C)C(=O)NC(C)C(O)c1ccccc1)OC)N(C)C(=O)C(NC(=O)C(C(C)C)N(C)C(=O)OCc1ccc(NC(=O)[C@H](CCCNC(N)=O)NC(=O)[C@@H](NC(=O)CCOCCC(=O)NCCNc2ncc(-c3cc(C)cc(F)c3)c(N3CCC(N)CC3)c2-c2nc3ccc(C(N)=O)cc3[nH]2)C(C)C)cc1)C(C)C (stereo in doubt) [Compound 28] | 1290 nM | 2 nM | 704 nM | – | – | – |
| CC[C@@]1(O)C(=O)OCc2c1cc1n(c2=O)Cc2c-1nc1cc(F)c(C)c3c1c2[C@@H](NC(=O)OCc1ccc(NC(=O)[C@H](C)NC(=O)[C@@H](NC(=O)CCOCCC(=O)NCCNc2ncc(-c4cc(C)cc(F)c4)c(N4CCC(N)CC4)c2-c2nc4ccc(Cl)cc4[nH]2)C(C)C)c(O[C@@H]2O[C@H](C(=O)O)[C@@H](O)[C@H](O)[C@H]2O)c1)CC3 [Compound 65] | – | – | – | 250 nM | 0.27 nM | 1.5 nM |
| CC[C@@]1(O)C(=O)OCc2c1cc1n(c2=O)Cc2c-1nc1cc(F)c(C)c3c1c2[C@@H](NC(=O)CCOCCC(=O)NCCNc1ncc(-c2cc(C)cc(F)c2)c(N2CCC(N)CC2)c1-c1nc2ccc(Cl)cc2[nH]1)CC3 [Compound 78, N-{2-[4-(4-amino-1-piperidyl)-3-(6-chloro-1H-1,3-benzimidazol-2-yl)-5-(3-fluoro-5-tolyl)-2-pyridylamino]ethyl}3-(2-{N-(10S,23S)-10-ethyl-18-fluoro-10-hydroxy-19-methyl-5,9-dioxo-8-oxa-4,15-diazahexacyclo[14.7.1.0^2,^14.0^4,^13.0^6,^11.0^20,^24]tetracosa-1,6(11),12,14,16,18,20(24)-heptaen-23-ylcarbamoyl}ethoxy)propionamide] | – | – | – | 170 nM | 0.23 nM | 0.77 nM |
